Here are results for twelve molecules from US20030036562A1, “Water-soluble dendrimeric fullerene as anti-HIV therapeutic” (priority 2001, published 2003).

Read-outs that look alike come from different tables or passages of the source. Bounds are passed on as bounds.

One series concerns the target Anti-C60. The settings on record: measured inhibition of bovine thyroglobulin-fullerene conjugate binding by test compound; cited from earlier work.
In a further series the test system is HIV-1 (wild type). As to conditions: FDA-approved drugs; cited from earlier work.
The target of the next series is T1, Protease (Human immunodeficiency virus type 1 group M subtype B, UniProt P04585).
T1 construct: Protease
The settings on record: FDA-approved drugs; cited from earlier work.

The subject of the next series is M184V (3TC resistant). The settings on record: cited from earlier work.
The conditions of series [1]: in vivo; cited from earlier work.
For series [2] the following is noted: cited from earlier work.
Series [3] has as its target T2, recombinant HIV-1 p66/51 reverse transcriptase (Human immunodeficiency virus type 1 group M subtype B, UniProt P04585).
T2 construct: recombinant HIV-1 p66/51 reverse transcriptase
Briefly: Inhibition of p66/51 reverse transcriptase. It counts as biochemical.

The next series concerns Vero cells. As to conditions: cited from earlier work.
A further series addresses RT (Human immunodeficiency virus type 1 group M subtype B, UniProt P04585). As to conditions: FDA-approved drugs; cited from earlier work.
For series [4], the system named is CEM (human lymphoblastoid) cells. The settings on record: cited from earlier work.
For a further series, the system named is H9 cells. As to conditions: cited from earlier work.
Where [5] appears, read: M184V, common RT mutant, FDA-approved drugs, read-out: EC50.

The Kd is the constant that tells how readily two partners part at equilibrium. In the case of C3-carboxyfullerene, at Anti-C60, the Kd is 250 µg/mL.

As for `CC(C)(C)NC(=O)[C@@H]1CN(Cc2cccnc2)CCN1C[C@@H](O)C[C@@H](Cc1ccccc1)C(=O)N[C@H]1c2ccccc2C[C@H]1O` [Indinavir], the EC50 in the series on HIV-1 (wild type) is about 100 nM. On Protease, the “Protease Inhibitor” value was “yes”.

For D3-carboxyfullerene, at Anti-C60, the Kd was 38 µg/mL.

Consider `CC(C)c1nc(CN(C)C(=O)N[C@H](C(=O)N[C@@H](Cc2ccccc2)C[C@H](O)[C@H](Cc2ccccc2)NC(=O)OCc2cncs2)C(C)C)cs1` [Ritonavir], for which the EC50 in the series on M184V (3TC resistant) (setting [5]) was 800 nM; with HIV-1 (wild type) it was 45 nM. In addition, the “Oral Bioavailability” value in series [1] is “˜78%”. Also, the “Protease Inhibitor” value at Protease is listed as “yes”.

Consider `c12c3c4c5c1c1c6c7c2c2c8c3c3c9c4c4c%10c5c5c1c1c6c6c%11c7c2c2c7c8c3c3c8c9c4c4c9c%10c5c5c1c1c6c6c%11c2c2c7c3c3c8c4c4c9c5c1c1c6c2c3c41` [unmodified C60, C60], for which the “toxicity in vivo (in words)” value in [2] is on record as “non toxic even at high doses”.

Turning to `Nc1ccn([C@@H]2CS[C@H](CO)O2)c(=O)n1` [Compound 3TC, 3TC], the EC50 in the series on M184V (3TC resistant) (setting [5]) is over 100000 nM; with M184V (3TC resistant) (text b84, unit inferred, read-out: activity against M184V), over 100000 nM; in the series with HIV-1 (wild type), 180 nM.

In general, inhibition refers to how much of the control response was suppressed. `Cc1cn([C@H]2C[C@H](N=[N+]=[N-])[C@@H](CO[P@](=O)(O)O[P@](=O)(O)OP(=O)(O)O)O2)c(=O)[nH]c1=O` [AZTTP]: the inhibition at 0.001 µM in series [3] (0.001 μM) worked out at 8%. In addition, in [3] (0.01 μM), the inhibition at 0.01 µM is 35.7%. Also, the inhibition at 0.1 µM in series [3] (0.1 μM) came out at 72.7%. For the same molecule, the inhibition at 1 µM in series [3] (1 μM) is 97%. Also, the inhibition at 10 µM in series [3] (10 μM) turned out to be 99.6%. Further, in series [3] (p66/51 1 unit/rxn, (rA)n.(dT)12-18), the “1C 90” value stood at 0.27 µM. In series [3] (p66/51 1 unit/rxn, (rA)n.(dT)12-18, read-out: 1C 50), the IC50 came out at 21 nM.

For the molecule `CC(C)(C)NC(=O)[C@@H]1C[C@@H]2CCCC[C@@H]2CN1C[C@@H](O)[C@H](Cc1ccccc1)NC(=O)[C@H](CC(N)=O)NC(=O)c1ccc2ccccc2n1` [Saquinavir], the “Oral Bioavailability” value in series [1] was “˜4%”. The “Protease Inhibitor” value on Protease is given as “yes”.

For the molecule `Cc1c(O)cccc1C(=O)N[C@@H](CSc1ccccc1)[C@H](O)CN1C[C@H]2CCCC[C@H]2C[C@H]1C(=O)NC(C)(C)C` [Nelfinavir], the EC50 in the series on M184V (3TC resistant) (setting [5]) is 400 nM. In [1], the “Oral Bioavailability” value is recorded as 52%. Also, the “Protease Inhibitor” value at Protease was “yes”.

For `Cc1cn([C@H]2C[C@H](N=[N+]=[N-])[C@@H](CO)O2)c(=O)[nH]c1=O` [AZT], the EC50 with M184V (3TC resistant) (setting [5]) is 10 nM; with HIV-1 (wild type), 50 nM. In addition, the IC50 in series [3] (poly (rA)n oligo (dT)12 template primer, text b87, unit inferred, read-out: IC50 against RT) amounted to 21 nM. Also, the “cytotoxicity (in words)” value (in the series on Vero cells; in series [4]; in the series on H9 cells) was “cytotoxic” each time. The “RT Inhibitor” value at RT is “yes”.

Consider fullerenol [C], for which the Kd on Anti-C60 was 750 µg/mL.

With `CC(C)CN(C[C@@H](O)[C@H](Cc1ccccc1)NC(=O)O[C@H]1CCOC1)S(=O)(=O)c1ccc(N)cc1` [Amprenavir], the EC50 was 500 nM in the series on M184V (3TC resistant) (setting [5]) and 54 nM in the series on HIV-1 (wild type). At Protease, the “Protease Inhibitor” value is reported as “yes”.
